The numbers were not newly measured in patent publication US20230225964A1, “MICROSTIRRING DEVICES AND TECHNIQUES FOR ENHANCING BIOAVAILABILITY OF ORALLY ADMINISTERED DRUGS” (The Regents of the University of California, priority 2022, published 2023), which cites them from elsewhere.

Each structure is given as a SMILES string. ≈ marks a conversion by molar mass, not a printed value.

For the compound `N[C@@H](Cc1ccc(O)c(O)c1)C(=O)O` [L-Dopa, levodopa], the solubility in water was 66 mg/mL (≈ 335 mM).
